Assay type in all cases: in vivo
Common to all, as to conditions: 1000 g/h, after 13 days

Assay [1] has as its system Ipomoea hederacea (IPOHE). In words: Further testing, pre-emergence application. The method, then:
(§1) Seeds of a variety of test species are sown in standard soil in pots (Lolium perenne (LOLPE), Solanum nigrum (SOLNI), Amaranthus retoflexus (AMARE), Setaria faberi (SETFA), Echinochloa crus-galli (ECHCG), Ipomoea hederacea (IPOHE)). After cultivation for one day (pre-emergence) or after 8 days cultivation (post-emergence) under controlled conditions in a glasshouse (at 24/16° C., day/night; 14 hours light; 65% humidity), the plants are sprayed with an aqueous spray solution derived from the formulation of the technical active ingredient in acetone/water (50:50) solution containing 0.5% Tween 20 (polyoxyethelyene sorbitan monolaurate, CAS RN 9005-64-5). Compounds are applied at 1000 g/h unless otherwise stated. The test plants are then grown in a glasshouse under controlled conditions in a glasshouse (at 24/16° C., day/night; 14 hours light; 65% humidity) and watered twice daily. After 13 days for pre and post-emergence, the test is evaluated for the percentage damage caused to the plant. The biological activities are shown in the following table on a five point scale (5=80-100%; 4=60-79%; 3=40-59%; 2=20-39%; 1=0-19%).

For assay [2], the system named is Amaranthus retoflexus (AMARE). In words: Further testing, pre-emergence application. The method, then: as §1
In assay [3] the test system is Setaria faberi (SETFA). In words: Further testing, pre-emergence application. The method, then: as §1
The test system of assay [4] is Echinochloa crus-galli (ECHCG). In words: Further testing, pre-emergence application. The method, then:
as §1

In assay [5] the test system is Lolium perenne (LOLPE). In words: Further testing, pre-emergence application. The method, then: as §1
In assay [6] the test system is Solanum nigrum (SOLNI). In words: Further testing, pre-emergence application. The method, then: as §1
In assay [7] the test system is Ipomoea hederacea (IPOHE). In words: Further testing, post-emergence application. The method, then:
as §1

The subject of assay [8] is Amaranthus retoflexus (AMARE). In words: Further testing, post-emergence application. The procedure: as §1
The subject of assay [9] is Setaria faberi (SETFA). In words: Further testing, post-emergence application. The method, then: as §1
Assay [10] concerns Echinochloa crus-galli (ECHCG). In words: Further testing, post-emergence application. The method, then:
as §1

Assay [11] concerns Lolium perenne (LOLPE). In words: Further testing, post-emergence application. The method, then: as §1
The test system of assay [12] is Solanum nigrum (SOLNI). In words: Further testing, post-emergence application. The method, then: as §1

SMILES strings stand for the structures.

The source of these data is US10512268B2, “Herbicidal compounds” (Syngenta Participations AG, priority 2015, dated 2019).

`CCn1nnnc1NC(=O)c1nn(C)c(=O)c(C2CCCCC2)c1Cl` [Compound 1.002]: the “percentage damage caused to the plant, five point scale” value (“percentage damage caused to the plant” below) (in [1]; in assay [2]; in the assay on Setaria faberi (SETFA) [3]; in [4]; in the assay on Lolium perenne (LOLPE) [5]; in the assay on Solanum nigrum (SOLNI) [6]) was 5 (5=80-100%) each time. The “percentage damage caused to the plant” value (in assay [7]; in [8]; in the assay with Setaria faberi (SETFA) [9]; in [10]; in the assay on Lolium perenne (LOLPE) [11]; with Solanum nigrum (SOLNI) [12]) was 5 (5=80-100%) throughout.
In the case of `CCCn1nnnc1NC(=O)c1nn(C)c(=O)c(C2CCCCC2)c1Cl` [Compound 1.003], the “percentage damage caused to the plant” value (in [1]; in assay [2]; in the assay on Setaria faberi (SETFA) [3]; in assay [4]; in the assay with Lolium perenne (LOLPE) [5]; with Solanum nigrum (SOLNI) [6]) was 5 (5=80-100%) in each case. Moreover, the “percentage damage caused to the plant” value in assay [7] is given as 5 (5=80-100%); in assay [8] it was 5 (5=80-100%); in the assay on Setaria faberi (SETFA) [9] it was 5 (5=80-100%); in assay [10], 5 (5=80-100%); in the assay with Lolium perenne (LOLPE) [11] it was 4 (4=60-79%); in the assay on Solanum nigrum (SOLNI) [12], 5 (5=80-100%).
As for `Cn1nnnc1NC(=O)c1nn(C)c(=O)c(C2CCCC2)c1Cl` [Compound 1.005], the “percentage damage caused to the plant” value (in assay [1]; in assay [2]; in the assay with Setaria faberi (SETFA) [3]; in assay [4]; in the assay with Lolium perenne (LOLPE) [5]; with Solanum nigrum (SOLNI) [6]) was 5 (5=80-100%) in each case. Also, the “percentage damage caused to the plant” value (in assay [7]; in [8]; in the assay with Setaria faberi (SETFA) [9]; in assay [10]; in the assay on Lolium perenne (LOLPE) [11]; with Solanum nigrum (SOLNI) [12]) was 5 (5=80-100%) in each case.
In the case of `CCCn1nnnc1NC(=O)c1nn(C)c(=O)c(C2CCCC2)c1Cl` [Compound 1.006], the “percentage damage caused to the plant” value in [1] is listed as 4 (4=60-79%); in assay [2], 5 (5=80-100%); in the assay on Setaria faberi (SETFA) [3], 5 (5=80-100%); in assay [4] it was 5 (5=80-100%); in the assay on Lolium perenne (LOLPE) [5], 5 (5=80-100%); in the assay with Solanum nigrum (SOLNI) [6], 5 (5=80-100%). Besides, the “percentage damage caused to the plant” value (in [7]; in [8]; in the assay on Setaria faberi (SETFA) [9]; in assay [10]; with Lolium perenne (LOLPE) [11]; with Solanum nigrum (SOLNI) [12]) was 5 (5=80-100%) in each case.
As to `Cn1nnnc1NC(=O)c1nn(C)c(=O)c(C2CCC(C)(C)CC2)c1Cl` [Compound 1.017], the “percentage damage caused to the plant” value in assay [1] is reported as 4 (4=60-79%); in assay [2], 5 (5=80-100%); with Setaria faberi (SETFA) [3] it was 5 (5=80-100%); in [4], 5 (5=80-100%); in the assay with Lolium perenne (LOLPE) [5], 5 (5=80-100%); in the assay with Solanum nigrum (SOLNI) [6] it was 5 (5=80-100%). Moreover, the “percentage damage caused to the plant” value (in assay [7]; in assay [8]; with Setaria faberi (SETFA) [9]; in assay [10]; with Lolium perenne (LOLPE) [11]; in the assay on Solanum nigrum (SOLNI) [12]) was 5 (5=80-100%) throughout.
With `CC1CCC(c2c(Cl)c(C(=O)Nc3nnnn3C)nn(C)c2=O)CC1` (stereo not drawn) [Compound 1.022], the “percentage damage caused to the plant” value (in [1]; in [2]; in the assay on Setaria faberi (SETFA) [3]; in assay [4]; in the assay with Lolium perenne (LOLPE) [5]; in the assay on Solanum nigrum (SOLNI) [6]) was 5 (5=80-100%) in each case. For the same molecule, the “percentage damage caused to the plant” value (in assay [7]; in [8]; in the assay with Setaria faberi (SETFA) [9]; in [10]; with Lolium perenne (LOLPE) [11]; with Solanum nigrum (SOLNI) [12]) was 5 (5=80-100%) throughout.
`Cn1nnnc1NC(=O)c1nn(C)c(=O)c(C2CCCCC2)c1Cl` [Compound 1.030]: the “percentage damage caused to the plant” value in assay [1] is on record as 2 (2=20-39%); in assay [2], 5 (5=80-100%); in the assay on Setaria faberi (SETFA) [3], 5 (5=80-100%); in [4], 5 (5=80-100%); in the assay on Lolium perenne (LOLPE) [5] it was 5 (5=80-100%); with Solanum nigrum (SOLNI) [6], 5 (5=80-100%). Further, the “percentage damage caused to the plant” value is given as 4 (4=60-79%) in assay [7]; 5 (5=80-100%) in assay [8]; 5 (5=80-100%) with Setaria faberi (SETFA) [9]; 5 (5=80-100%) in assay [10]; 5 (5=80-100%) with Lolium perenne (LOLPE) [11]; 5 (5=80-100%) in the assay with Solanum nigrum (SOLNI) [12].
`Cn1nnnc1NC(=O)c1nn(C)c(=O)c(C2CCCCC2)c1Cl` [Compound 1.031]: the “percentage damage caused to the plant” value in assay [1] was 4 (4=60-79%); in [2] it was 5 (5=80-100%); in the assay on Setaria faberi (SETFA) [3] it was 4 (4=60-79%); in assay [4], 5 (5=80-100%); in the assay with Lolium perenne (LOLPE) [5], 3 (3=40-59%); in the assay with Solanum nigrum (SOLNI) [6], 5 (5=80-100%). Moreover, the “percentage damage caused to the plant” value in assay [7] is listed as 4 (4=60-79%); in assay [8], 5 (5=80-100%); in the assay on Setaria faberi (SETFA) [9], 5 (5=80-100%); in assay [10], 4 (4=60-79%); with Lolium perenne (LOLPE) [11], 4 (4=60-79%); with Solanum nigrum (SOLNI) [12], 5 (5=80-100%).
